Assay results: US20080146669A1, “Novel Chloride Channel Pore Openers” (THE UAB RESEARCH FOUNDATION, priority 2005, published 2008)

Columns and labels:
ΔF508-CFTR [1] = molecular target: T1, ΔF508-CFTR (Homo sapiens, UniProt P13569, DEL508-508); experiment: Micropatch recording of HEK-293T patches expressing ΔF508-CFTR, opening rate and Po; format: biochemical
T1 construct: expressed in transfected cells; host or cells: HEK-293T, transient; grown at 28° C. for 24 hrs
Method: (§1) Cell culture DNA constructs and transfections. Baby hamster kidney (BHK) cells stably expressing wild type human CFTR (BHK-CFTR) were provided by J. Hanrahan (McGill University). BHK-CFTR cells were cultured in Dulbecco's modified Eagle's medium (DMEM (Mediatech)) supplemented with 5% fetal bovine serum (FBS) and 1 mM penicillin-streptomycin. The growth media for the BHK-CFTR cells also contained 0.5 mM methotrexate to maintain selection for CFTR-expressing cells (22). HEK-293T cells were transiently transfected with wild-type or mutant CFTR cDNA using the Lipofectamine transfection kit following manufacturer's recommendations (Invitrogen, Corp). HEK-293T cells were cultured in DMEM. All cells were grown on plastic coverslips for patch clamp recording and were used 2-3 days post-seeding. Electrophysiology and data analysis. Macroscopic and multi-channel currents were recorded in the excised, inside-out configuration. Patch pipettes were pulled from Corning 8161 glass to tip resistances of […] (macroscopic recordings) or 8-10 mOhm (micropatch studies). CFTR channels were activated following patch excision by exposure of the cytoplasmic face of the patch to catalytic subunit of protein kinase A (PKA; 110 U/ml; Promega) and Mg-ATP (1.5 mM). CFTR currents were recorded in symmetrical solution containing (in mM): 140 N-methyl-D-glucaniine-Cl, 3 MgCl2, 1 EGTA and 10 TES. The pH was adjusted to 7.3. Macroscopic currents were evoked using a ramp protocol from +80 to −80 mV with a 10 sec time period. Patches were held at −80 mV or +80 mV for micropatch (multichannel) recordings. All patch clamp experiments were performed at 21-23° C. Signals from macroscopic and single channel recording were filtered at 20 and 200 Hz, respectively. Data acquisition and analysis were performed using pCLAMP8 and pCLAMP9 software (Axon Instruments). Curve fitting for kinetic analysis was performed using Microcal Origin software. Averaged data are presented as mean +/−SEM. Statistical comparisons were made by performing unpaired t-tests unless otherwise indicated. Ussing Chamber Experiments-CFBE41o epithelial cells stably transfected with ΔF508-CFTR or transiently transfected with wild-type CFTR were cultured as electrically resistive monolayers and assayed in Ussing chambers as described (16). ΔF508-CFTR-expressing monolayers were grown at 27° C. for 2-3 days to enhance the surface expression of this temperature-sensitive mutant. A serosal-to-mucosal Cl^− gradient (120 to 1.2 mM) was imposed, followed by amiloride addition (100 μM) to block Na^+ currents. Compounds were added to both chambers at the indicated concentrations. A 3-mV voltage pulse was imposed every 100 s to monitor transepithelial resistance.

wild-type CFTR [2] = molecular target: T2, wild-type CFTR (Homo sapiens, UniProt P13569); experiment: Macroscopic currents in excised patches from wild-type CFTR-transfected HEK-293T cells; format: biochemical; set-up: expressed in transfected cells; host or cells: HEK-293T, transient (Lipofectamine); settings: 10 μM; 1.5 mM Mg-ATP and 110 U/ml PKA
T2 sequence (P13569 whole entry): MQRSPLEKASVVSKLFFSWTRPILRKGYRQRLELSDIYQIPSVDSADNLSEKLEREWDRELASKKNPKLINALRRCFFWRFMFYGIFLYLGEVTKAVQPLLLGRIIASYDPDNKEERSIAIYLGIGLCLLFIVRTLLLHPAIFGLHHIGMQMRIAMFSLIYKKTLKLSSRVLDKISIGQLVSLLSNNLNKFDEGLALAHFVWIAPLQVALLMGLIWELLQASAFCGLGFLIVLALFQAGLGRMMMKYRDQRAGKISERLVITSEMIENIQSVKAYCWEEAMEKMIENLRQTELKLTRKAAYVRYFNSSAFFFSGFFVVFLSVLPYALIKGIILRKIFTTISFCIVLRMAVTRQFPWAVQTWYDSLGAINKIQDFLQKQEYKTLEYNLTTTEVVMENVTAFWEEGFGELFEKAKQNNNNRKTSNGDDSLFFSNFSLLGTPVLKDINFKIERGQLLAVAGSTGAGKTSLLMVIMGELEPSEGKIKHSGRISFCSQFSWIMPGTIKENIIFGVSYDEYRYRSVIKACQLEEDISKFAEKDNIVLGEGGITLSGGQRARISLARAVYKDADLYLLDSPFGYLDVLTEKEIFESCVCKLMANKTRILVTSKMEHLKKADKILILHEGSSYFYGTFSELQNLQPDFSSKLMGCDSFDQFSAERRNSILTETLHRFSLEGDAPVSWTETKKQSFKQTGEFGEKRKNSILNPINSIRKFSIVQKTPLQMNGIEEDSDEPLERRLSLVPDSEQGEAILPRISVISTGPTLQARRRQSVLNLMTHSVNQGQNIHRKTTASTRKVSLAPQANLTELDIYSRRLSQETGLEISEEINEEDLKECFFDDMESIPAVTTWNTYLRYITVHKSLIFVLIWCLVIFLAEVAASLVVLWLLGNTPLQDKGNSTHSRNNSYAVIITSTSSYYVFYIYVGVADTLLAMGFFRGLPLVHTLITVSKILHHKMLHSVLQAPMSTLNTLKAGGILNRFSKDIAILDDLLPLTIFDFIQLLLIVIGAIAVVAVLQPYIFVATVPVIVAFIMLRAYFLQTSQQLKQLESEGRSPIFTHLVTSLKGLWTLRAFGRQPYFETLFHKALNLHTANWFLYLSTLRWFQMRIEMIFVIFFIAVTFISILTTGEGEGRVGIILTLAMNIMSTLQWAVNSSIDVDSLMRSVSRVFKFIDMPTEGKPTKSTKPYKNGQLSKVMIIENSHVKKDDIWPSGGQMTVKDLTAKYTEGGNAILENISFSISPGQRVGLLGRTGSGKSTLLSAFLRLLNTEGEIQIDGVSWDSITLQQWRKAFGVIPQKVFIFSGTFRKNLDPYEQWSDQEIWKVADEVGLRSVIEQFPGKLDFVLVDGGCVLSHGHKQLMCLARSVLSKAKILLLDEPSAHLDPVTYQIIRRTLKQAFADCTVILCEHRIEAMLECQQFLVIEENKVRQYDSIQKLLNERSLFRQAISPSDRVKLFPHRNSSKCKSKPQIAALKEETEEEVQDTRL
Method: Cell culture DNA constructs and transfections. Baby hamster kidney (BHK) cells stably expressing wild type human CFTR (BHK-CFTR) were provided by J. Hanrahan (McGill University). BHK-CFTR cells were cultured in Dulbecco's modified Eagle's medium (DMEM (Mediatech)) supplemented with 5% fetal bovine serum (FBS) and 1 mM penicillin-streptomycin. The growth media for the BHK-CFTR cells also contained 0.5 mM methotrexate to maintain selection for CFTR-expressing cells (22). HEK-293T cells were transiently transfected with wild-type or mutant CFTR cDNA using the Lipofectamine transfection kit following manufacturer's recommendations (Invitrogen, Corp). HEK-293T cells were cultured in DMEM. All cells were grown on plastic coverslips for patch clamp recording and were used 2-3 days post-seeding. Electrophysiology and data analysis. Macroscopic and multi-channel currents were recorded in the excised, inside-out configuration. Patch pipettes were pulled from Corning 8161 glass to tip resistances of […] (macroscopic recordings) or 8-10 mOhm (micropatch studies). CFTR channels were activated following patch excision by exposure of the cytoplasmic face of the patch to catalytic subunit of protein kinase A (PKA; 110 U/ml; Promega) and Mg-ATP (1.5 mM). CFTR currents were recorded in symmetrical solution containing (in mM): 140 N-methyl-D-glucaniine-Cl, 3 MgCl2, 1 EGTA and 10 TES. […]

CFTR-minus cells = experiment: Currents across patches excised from CFTR-minus (untransfected) cells; format: biochemical
Method: as §1

wild-type CFTR [3] = molecular target: T2, wild-type CFTR; experiment: Micropatch (multichannel) recording of BHK-CFTR patches, opening rate and Po; format: biochemical; set-up: expressed in transfected cells; provided by J. Hanrahan (McGill University)
Method: as §1, with “CFTR channels were activated following patch excision by exposure of the cytoplasmic face of the patch to catalytic subunit of protein kinase A (PKA; 110 U/ml; Promega) and Mg-ATP (1.5 mM).” left out, “Ussing Chamber Experiments-CFBE41o epithelial cells stably transfected with ΔF508-CFTR or transiently transfected with wild-type CFTR were cultured as electrically resistive monolayers and assayed in Ussing chambers as described (16). ΔF508-CFTR-expressing monolayers were grown at 27° C. for 2-3 days to enhance the surface expression of this temperature-sensitive mutant. A serosal-to-mucosal Cl^− gradient (120 to 1.2 mM) was imposed, followed by amiloride addition (100 μM) to block Na^+ currents. Compounds were added to both chambers at the indicated concentrations. A 3-mV voltage pulse was imposed every 100 s to monitor transepithelial resistance.” left out

G551D-CFTR = molecular target: T3, G551D-CFTR (Homo sapiens, UniProt P13569, G551D); experiment: Macroscopic currents in excised patches from HEK-293T cells expressing G551D-CFTR; format: biochemical; settings: 10 μM
T3 construct: expressed in transfected cells; host or cells: HEK-293T, transient
T3 sequence (P13569 whole entry G551D): as the sequence (P13569 whole entry) above, with G551D counted along it
Method: as §1, with “Ussing Chamber Experiments-CFBE41o epithelial cells stably transfected with ΔF508-CFTR or transiently transfected with wild-type CFTR were cultured as electrically resistive monolayers and assayed in Ussing chambers as described (16). ΔF508-CFTR-expressing monolayers were grown at 27° C. for 2-3 days to enhance the surface expression of this temperature-sensitive mutant. A serosal-to-mucosal Cl^− gradient (120 to 1.2 mM) was imposed, followed by amiloride addition (100 μM) to block Na^+ currents. Compounds were added to both chambers at the indicated concentrations. A 3-mV voltage pulse was imposed every 100 s to monitor transepithelial resistance.” left out

ΔF508-CFTR [4] = molecular target: T1, ΔF508-CFTR; experiment: Macroscopic currents in excised patches from temperature-corrected HEK-293T cells expressing ΔF508-CFTR; format: biochemical
Method: as §1

[5] = Solubility limit on achievable dose; format: physicochemical; settings: 200-400 μM doses impossible to achieve
[6] = 10 μM, high PKA, 1.5 mM MgATP, −80 mV, best guess estimate, mean±S.E., n=4
[7] = 10 μM, poorly phosphorylated, −80 mV, best guess estimate, mean±S.E., n=7

T1 sequence (P13569 with tags, fused parts or gaps DEL508-508): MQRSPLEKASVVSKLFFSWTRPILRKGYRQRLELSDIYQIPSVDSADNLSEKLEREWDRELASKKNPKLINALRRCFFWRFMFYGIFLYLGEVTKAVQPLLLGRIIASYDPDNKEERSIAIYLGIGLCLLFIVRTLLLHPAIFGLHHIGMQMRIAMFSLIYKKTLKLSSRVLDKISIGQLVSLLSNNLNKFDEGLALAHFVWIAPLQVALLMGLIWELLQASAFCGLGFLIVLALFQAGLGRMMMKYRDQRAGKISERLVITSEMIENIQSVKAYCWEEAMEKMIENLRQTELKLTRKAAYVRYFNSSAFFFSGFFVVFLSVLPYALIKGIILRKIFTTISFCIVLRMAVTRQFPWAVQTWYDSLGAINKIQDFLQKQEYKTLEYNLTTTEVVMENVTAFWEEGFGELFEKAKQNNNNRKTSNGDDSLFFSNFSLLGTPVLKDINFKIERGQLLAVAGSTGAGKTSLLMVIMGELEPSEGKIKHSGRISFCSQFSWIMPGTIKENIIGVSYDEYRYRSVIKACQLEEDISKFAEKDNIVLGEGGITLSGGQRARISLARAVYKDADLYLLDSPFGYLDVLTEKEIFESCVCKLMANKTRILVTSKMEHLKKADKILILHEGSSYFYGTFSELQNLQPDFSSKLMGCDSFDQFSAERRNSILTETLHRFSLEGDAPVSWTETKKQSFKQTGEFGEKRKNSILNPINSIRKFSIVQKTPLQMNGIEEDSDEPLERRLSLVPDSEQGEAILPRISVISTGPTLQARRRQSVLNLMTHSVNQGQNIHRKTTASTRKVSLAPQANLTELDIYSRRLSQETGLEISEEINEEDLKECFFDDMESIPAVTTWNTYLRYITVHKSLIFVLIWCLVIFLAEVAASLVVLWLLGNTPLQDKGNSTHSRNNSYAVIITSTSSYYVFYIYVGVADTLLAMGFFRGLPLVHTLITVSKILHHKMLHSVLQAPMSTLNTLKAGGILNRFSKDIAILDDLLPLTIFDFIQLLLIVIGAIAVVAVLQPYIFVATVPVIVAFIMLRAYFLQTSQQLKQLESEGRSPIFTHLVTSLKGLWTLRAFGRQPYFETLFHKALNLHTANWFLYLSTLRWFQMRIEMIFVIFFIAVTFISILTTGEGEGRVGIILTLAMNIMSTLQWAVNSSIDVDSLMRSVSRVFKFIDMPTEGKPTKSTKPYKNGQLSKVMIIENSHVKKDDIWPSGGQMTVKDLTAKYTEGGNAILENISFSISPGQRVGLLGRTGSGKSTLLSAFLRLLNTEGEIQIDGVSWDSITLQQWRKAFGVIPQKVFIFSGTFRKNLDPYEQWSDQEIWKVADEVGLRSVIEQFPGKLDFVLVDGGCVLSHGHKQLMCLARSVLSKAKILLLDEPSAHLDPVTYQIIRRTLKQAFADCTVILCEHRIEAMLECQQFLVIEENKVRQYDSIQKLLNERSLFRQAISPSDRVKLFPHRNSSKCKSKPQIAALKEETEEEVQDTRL

## NC(=O)c1cc([N+](=O)[O-])ccc1NCCCc1ccccc1 [NPPB-Am]
ΔF508-CFTR [1]; [6]
  mean single channel opening rate, post compound: 0.87±0.31 openings/s/channel
  single channel Po, post compound: 0.25±0.07
ΔF508-CFTR [1]; 10 μM, representative micropatch, no more than 2 before addition
  simultaneous openings after compound addition: 12-15
ΔF508-CFTR [1]; fewer than 10 detectable channels per patch
  effect on ΔF508-CFTR channel opening rate: large increase in channel opening rate
wild-type CFTR [2]
  stimulation of the activity of the wild-type channel: 1.5-2 fold
CFTR-minus cells; data not shown
  effect on currents across membrane patches excised from CFTR-minus cells: no effect
CFTR-minus cells; untransfected HEK-293T
  effect on currents across a patch from untransfected HEK-293T cells: neither
wild-type CFTR [3]; [7]
  mean single channel opening rate, post compound: 1.07±0.29 openings/s/channel
  single channel Po, post compound: 0.26±0.06
wild-type CFTR [3]; poorly phosphorylated (2 U/ml PKA), fewer than 10 channels per patch
  effect on opening rates and mean single channel open probabilities (Pos): markedly increased the opening rates and mean single channel open probabilities
G551D-CFTR
  effect on G551D-CFTR activity: only modestly stimulated
ΔF508-CFTR [4]; 10 μM, 1.5 mM Mg-ATP and 110 U/ml PKA
  increase in ΔF508-CFTR macroscopic currents: 10-15 fold
ΔF508-CFTR [4]; 10 μM, high PKA 110 U/ml without PKI
  effect on ΔF508-CFTR macroscopic currents: dramatically stimulated
ΔF508-CFTR [4]; added after PKI
  effect on ΔF508-CFTR channel activity in the absence of active kinase: markedly stimulated
[5]
  solubility relative to NPPB: less soluble
